Some test systems named below: OVCAR-8; EKVX; KM12; 786-0; SK-MEL-28; HOP-92; SF-268; SN12C; SF-295; OVCAR-3; NCI-H460; CCRF-CEM; SK-MEL-5; UO-31; RXF 393.
Common to all, as to assay: NCI-60 cell line screen, 48 h

The structures appear in SMILES notation.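 Cells were grown in 96-well plates and exposed to each compound for 48 hours at five concentrations; endpoints were interpolated linearly between bracketing concentrations, or set to the highest concentration if not reached. GI50: concentration for 50% inhibition of growth.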 Active and inactive are the calls of the source. No stated cut-off is given here; in the data, active = GI50 up to about 1.1 µM and inactive = higher.

As for `C#CCN(Cc1ccc2nc(-c3ccccc3)c(Cl)nc2c1)c1ccc(Cl)c(Cl)c1`, the GI50 in the assay on OVCAR-8, with EKVX, in the assay on KM12, with 786-0, in the assay with SK-MEL-28 and with HOP-92 was > 100 µM (inactive) each time. The GI50 in the assay with SF-268 is > 100 µM (inactive); in the assay on SN12C it was > 100 µM (inactive); with SF-295, > 100 µM (inactive); in the assay with OVCAR-3, 60 µM (inactive); in the assay on NCI-H460 it was > 100 µM (inactive); in the assay with CCRF-CEM it was > 100 µM (inactive). In addition, the GI50 with SK-MEL-5 and in the assay on UO-31 was > 100 µM (inactive) in each case.
As for `CC(=O)N1C/C(=C\c2ccccc2)C(=O)/C(=C/c2ccccc2)C1`, the GI50 was 7.8 µM (inactive) in the assay on OVCAR-8; 24 µM (inactive) in the assay with EKVX; 3.65 µM (inactive) in the assay with KM12; 15.6 µM (inactive) in the assay on 786-0; 13.2 µM (inactive) in the assay on SK-MEL-28; 16.2 µM (inactive) in the assay on RXF 393. For the same molecule, the GI50 with SF-268 is 23.2 µM (inactive); with SN12C, 14.4 µM (inactive); with SF-295 it was 13.4 µM (inactive); in the assay on OVCAR-3, 6.43 µM (inactive); in the assay with NCI-H460 it was 17.4 µM (inactive); with CCRF-CEM it was 2.82 µM (inactive). Moreover, the GI50 in the assay with SK-MEL-5 is 6.19 µM (inactive); with UO-31 it was 19.7 µM (inactive).
With `CC(C)(Oc1ccc2c(=O)cc(-c3ccc(Cl)cc3)oc2c1)C(=O)Nc1c(Cl)cccc1Cl`, the GI50 in the assay with OVCAR-8, in the assay with EKVX, in the assay with KM12, in the assay on 786-0, in the assay with SK-MEL-28 and in the assay with HOP-92 was > 100 µM (inactive) each time. For the same molecule, the GI50 in the assay on SF-268 is > 100 µM (inactive); with SF-295, > 100 µM (inactive); with OVCAR-3 it was > 100 µM (inactive); in the assay on NCI-H460 it was > 100 µM (inactive); with CCRF-CEM it was > 100 µM (inactive); with SK-MEL-5 it was 96.6 µM (inactive). Also, in the assay on UO-31, the GI50 is 25 µM (inactive).
On to `CCC12CCCN(Cc3ccccc3)C1c1c(n(C)c3ccccc13)CC2` (stereo not given), for which the GI50 is > 253 µM (inactive) with OVCAR-8; > 253 µM (inactive) with EKVX; 86.1 µM (inactive) with KM12; > 253 µM (inactive) in the assay with 786-0; > 253 µM (inactive) in the assay with SK-MEL-28; 110 µM (inactive) in the assay with HOP-92. Besides, the GI50 with RXF 393 was 97.3 µM (inactive); with SF-268, 199 µM (inactive); in the assay on SN12C it was 149 µM (inactive); in the assay on SF-295 it was 117 µM (inactive); in the assay on OVCAR-3, 60.8 µM (inactive); in the assay with NCI-H460, > 253 µM (inactive). The values for the GI50 in the assay with CCRF-CEM and in the assay with SK-MEL-5 were 168 µM (inactive) and 69.3 µM (inactive), respectively.
Take `O=C(O/N=C1/CCC/C1=C\c1ccccc1)c1ccccc1`: the GI50 was 88.7 µM (inactive) in the assay with OVCAR-8; 29.8 µM (inactive) in the assay on EKVX; > 100 µM (inactive) with KM12; > 100 µM (inactive) in the assay on 786-0; > 100 µM (inactive) with SK-MEL-28; > 100 µM (inactive) in the assay on HOP-92. Further, the GI50 is > 100 µM (inactive) in the assay on RXF 393; 38.7 µM (inactive) in the assay on SF-268; > 100 µM (inactive) with SN12C; > 100 µM (inactive) with SF-295; > 100 µM (inactive) with OVCAR-3; > 10 µM (inactive) in the assay with NCI-H460. In addition, the results for the GI50 in the assay with CCRF-CEM and with SK-MEL-5 were 48.8 µM (inactive) and 44.6 µM (inactive), respectively.
With `COc1cc(C2c3cc4c(cc3C(NCC(O)CO)C3COC(=O)[C@H]23)OCO4)cc(OC)c1OC` (stereo not given in full), the GI50 with OVCAR-8 is 0.429 µM (active); in the assay on EKVX, 0.4 µM (active); with KM12, 0.217 µM (active); in the assay on 786-0 it was 0.578 µM (active); with SK-MEL-28, 0.617 µM (active); in the assay with SF-268, 0.374 µM (active). The GI50 in the assay on SN12C is 0.466 µM (active); in the assay on SF-295, 0.213 µM (active); in the assay with NCI-H460, 0.435 µM (active); with CCRF-CEM, 0.407 µM (active); with UO-31, 4.37 µM (inactive).
On to `CO[C@H](C(=O)O[C@H]1C(=O)N2CCC3CCC1C32C)c1ccccc1` (stereo not given in full), for which the GI50 in the assay on OVCAR-8, in the assay on EKVX, in the assay with KM12, in the assay on 786-0, with SK-MEL-28 and in the assay on RXF 393 was > 100 µM (inactive) in each case. For the same molecule, the GI50 in the assay with SF-268, in the assay with SN12C, with SF-295, with OVCAR-3, with NCI-H460 and in the assay with CCRF-CEM was > 100 µM (inactive) each time. Also, the GI50 with SK-MEL-5 and in the assay with UO-31 was > 100 µM (inactive) in each case.
Take `CC(=O)Oc1c2c(c(OC(C)=O)c3c1n(C(C)=O)c1ccccc1n3C(C)=O)n(C(C)=O)c1ccccc1n2C(C)=O`: the GI50 in the assay with OVCAR-8 is 2.95 µM (inactive); in the assay on EKVX it was > 10 µM (inactive); with KM12 it was 3.76 µM (inactive); with 786-0, 3.46 µM (inactive); in the assay with SK-MEL-28, 2.89 µM (inactive); in the assay with RXF 393, 8.38 µM (inactive). The GI50 is 7.05 µM (inactive) in the assay with SF-268; 3.27 µM (inactive) with SN12C; 8.81 µM (inactive) with SF-295; 1.92 µM (inactive) with OVCAR-3; 3.68 µM (inactive) in the assay with NCI-H460; 2.5 µM (inactive) in the assay on CCRF-CEM. Besides, the GI50 was 7.76 µM (inactive) with SK-MEL-5 and 12.6 µM (inactive) with UO-31.
With `COc1ccc(C(=O)O)c(Cc2cccc3ccccc23)c1`, the GI50 with OVCAR-8, in the assay on EKVX, in the assay with KM12, in the assay with 786-0, in the assay with SK-MEL-28 and with RXF 393 was > 100 µM (inactive) each time. In addition, the GI50 is > 100 µM (inactive) in the assay with SF-268; > 100 µM (inactive) in the assay on SN12C; > 100 µM (inactive) in the assay on SF-295; 64.3 µM (inactive) with OVCAR-3; > 100 µM (inactive) with NCI-H460; > 100 µM (inactive) with CCRF-CEM. For the same molecule, the GI50 in the assay on SK-MEL-5 and with UO-31 was > 100 µM (inactive) in each case.
Turning to `NC(=O)c1cn(C2OC(CO)C(O)C2O)c(=O)[nH]c1=O` (stereo not given), the GI50 in the assay on OVCAR-8, with EKVX, in the assay on KM12, in the assay with 786-0, in the assay with SK-MEL-28 and in the assay with HOP-92 was > 100 µM (inactive) throughout. Also, the GI50 with SF-268, in the assay on SF-295, with OVCAR-3, in the assay on NCI-H460, in the assay with CCRF-CEM and in the assay on SK-MEL-5 was > 100 µM (inactive) in each case. Moreover, the GI50 with UO-31 is > 100 µM (inactive).

The record behind these values is ChEMBL document CHEMBL1201862, “PubChem BioAssay data set” (2004).
